From patent US12285489B2, “Bone targeted antimicrobial oxazolidinone related compounds, formulations thereof, and uses thereof” (priority 2018, dated 2025) come the findings set out here.

Molecules are shown by their SMILES. In brackets after ≈: the same amount, converted by molar mass. Where two headings read alike, the source gives them in different places.

Common to all, as to assay type: cell-based
Test [1] relates to S. aureus. Put plainly: Antimicrobial susceptibility (MIC/MBEC), standard assays in polystyrene wells. Particulars: for MIC: Staphylococcus aureus.
The test system of test [2] is S. aureus biofilm. Description: Ex vivo rat femur biofilm prevention setting. Particulars: rat femurs saturated with compound; K-W test, p<0.01; comparator=control; FIG. 18B. An excerpt: FIG. 18A is a picture of rat femurs saturated with antibiotics or the conjugates after they are introduced to a solution of S. aureus in our ex vivo preventative experimental setting. The more the bone appears red, the more staphylococcal biofilms there are adhered to the surface in those regions.
FIG. 18A depicts a picture of rat femurs saturated with antibiotics or the conjugates after they are introduced to a solution of S. aureus in our ex vivo preventative experimental setting. The more the bone appears red, the more staphylococcal biofilms there are adhered to the surface in those regions.

Test [3] relates to S. aureus biofilm. Description: Ex vivo rat femur biofilm eradication setting. Conditions: K-W test, p<0.01, comparator=control, FIG. 18B.
Test [4] has as its system S. aureus. Put plainly: Preventative hydroxyapatite (HA) experiment. Conditions: K-W test, p<0.01; comparator=control; FIG. 16. The source says:
FIG. 16 depicts the results of a preventative hydroxyapatite (HA) experiment with tested compounds against S. aureus.
FIG. 16 depicts the results of a preventative hydroxyapatite (HA) experiment with tested compounds against S. aureus. […] (K-W test, * p<0.01; comparator=control). The results were obtained using standard assays.

For the next test, the system named is Aa. Description: Antimicrobial susceptibility (MIC/MBEC), standard assays in polystyrene wells.
[5] abbreviates: S. aureus, polystyrene wells, read-out: MIC.

Turning to `Cn1nnc(-c2ccc(-c3ccc(N4C[C@H](COC(=O)Nc5ccc(CC(P(=O)(O)O)P(=O)(O)O)cc5)OC4=O)cc3F)cn2)n1` [BCT, (R)-(2-(4-((((3-(3-fluoro-4-(6-(2-methyl-2H-tetrazol-5-yl)pyridin-3-yl)phenyl)-2-oxooxazolidin-5-yl)methoxy)carbonyl)amino)phenyl)ethane-1,1-diyl)bis(phosphonic acid)], the MBEC in the test on S. aureus [1] (S. aureus, polystyrene wells) was found to be 32 µg/mL. Further, the MIC with S. aureus [1] (setting [5]) turned out to be 16 mg/L (≈ 23.6 µM).

`Cn1nnc(-c2ccc(-c3ccc(N4C[C@H](COC(=O)c5ccc(CC(P(=O)(O)O)P(=O)(O)O)cc5)OC4=O)cc3F)cn2)n1` [BET, (R)-(2-(4-(((3-(3-fluoro-4-(6-(2-methyl-2H-tetrazol-5-yl)pyridin-3-yl)phenyl)-2-oxooxazolidin-5-yl)methoxy)carbonyl)phenyl)ethane-1,1-diyl)bis(phosphonic acid)]: the “S. aureus biofilm prevention on femurs ex vivo” value with S. aureus biofilm [2] is “significantly prevented or eradicated biofilm growth”. In the test on S. aureus [1] (S. aureus, polystyrene wells), the MBEC amounted to 16 µg/mL. The MIC in the test with S. aureus [1] (setting [5]) amounted to 4 mg/L (≈ 6.04 µM). Besides, in the test with S. aureus biofilm [3], the “S. aureus biofilm eradication on femurs ex vivo” value is recorded as “significantly prevented or eradicated biofilm growth”. Further, the “efficacy for preventing the growth of staphylococcal cells on HA” value in the test on S. aureus [4] is “statistically significant efficacy for preventing the growth of staphylococcal cells”.

As to `O=C(O)c1cn(C2CC2)c2cc(N3CCNCC3)c(F)cc2c1=O` [C, Ciprofloxacin], the MBEC in the test with S. aureus [1] (S. aureus, polystyrene wells) was 32 µg/mL; with Aa it was 8 µg/mL. Besides, the MIC with S. aureus [1] (setting [5]) and in the test on Aa was 0.5 mg/L (≈ 1.51 µM) throughout.

For `CN(C)c1ccc(O)c2c1C[C@H]1C[C@H]3[C@H](N(C)C)C(O)=C(C(N)=O)C(=O)[C@@]3(O)C(O)=C1C2=O` [M, Minocycline], the MBEC was 16 µg/mL with S. aureus [1] (S. aureus, polystyrene wells) and 8 µg/mL in the test with Aa. The MIC turned out to be 0.25 mg/L (≈ 0.546 µM) in the test on S. aureus [1] (setting [5]) and 2 mg/L (≈ 4.37 µM) in the test on Aa.

In the test on S. aureus [1] (S. aureus, polystyrene wells), `Cn1nnc(-c2ccc(-c3ccc(N4C[C@H](CO)OC4=O)cc3F)cn2)n1` [T, Tedizolid] displayed an MBEC of 8 µg/mL. Besides, the MIC with S. aureus [1] (setting [5]) is 0.5 mg/L (≈ 1.35 µM).

Compound `CN[C@H](CC(C)C)C(=O)N[C@H]1C(=O)N[C@@H](CC(N)=O)C(=O)N[C@H]2C(=O)N[C@H]3C(=O)N[C@H](C(=O)N[C@H](C(=O)O)c4cc(O)cc(O)c4-c4cc3ccc4O)[C@H](O)c3ccc(c(Cl)c3)Oc3cc2cc(c3O[C@@H]2O[C@H](CO)[C@@H](O)[C@H](O)[C@H]2O[C@H]2C[C@](C)(N)[C@H](O)[C@H](C)O2)Oc2ccc(cc2Cl)[C@H]1O` [V, Vancomycin] came in with an MBEC in the test on S. aureus [1] (S. aureus, polystyrene wells) of 8 µg/mL. In addition, in the test on S. aureus [1], inhibition of growth (MIC) required 1 mg/L (≈ 0.69 µM).

For the compound `COc1c(N2C[C@@H]3CCCN[C@@H]3C2)c(F)cc2c(=O)c(C(=O)O)cn(C3CC3)c12` [X, Moxifloxacin], the MBEC in the test with S. aureus [1] (S. aureus, polystyrene wells) was determined as 0.5 µg/mL; with Aa it was 0.1 µg/mL. Also, the MIC in the test on S. aureus [1] (setting [5]) and against Aa was 0.05 mg/L (≈ 0.125 µM) in each case.
